Laboratory results from US20080207708A1, “Oxazole and Thiazole Compounds and Their Use in the Treatment of Pge2 Mediated Disorders” (GLAXO GROUP LIMITED, priority 2005, published 2008).
Counter-ions that a name gives are not always drawn.

Experiments:
[1] = target: T1, EP1 receptors (Homo sapiens, UniProt P34995); assay: Binding assay for the human prostanoid EP1 receptor (competition with [3H]-PGE2); design: expressed in transfected cells; host or cells: CHO-K1 cells, membrane fraction; conditions: [3H]-PGE2 competition; averages of a number of experiments; read-out: pIC50 value, binding assay for the human prostanoid EP1 receptor (converted)
T1 sequence (P34995 1-402): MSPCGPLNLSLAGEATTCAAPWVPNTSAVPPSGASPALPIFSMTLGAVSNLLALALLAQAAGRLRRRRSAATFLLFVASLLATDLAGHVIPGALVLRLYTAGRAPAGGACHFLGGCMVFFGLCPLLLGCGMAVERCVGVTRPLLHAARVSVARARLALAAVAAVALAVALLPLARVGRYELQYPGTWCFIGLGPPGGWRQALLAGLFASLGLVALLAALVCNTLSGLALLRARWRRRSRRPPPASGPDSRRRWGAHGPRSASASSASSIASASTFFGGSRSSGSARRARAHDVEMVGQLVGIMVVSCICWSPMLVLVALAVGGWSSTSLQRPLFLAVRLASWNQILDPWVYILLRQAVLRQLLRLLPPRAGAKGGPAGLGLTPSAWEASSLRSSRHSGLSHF
Method in brief: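 Membranes from CHO-K1 cells stably expressing human EP1 incubated with compounds and [3H]-PGE2 (3 nM final) for 30 min at 30° C in MES buffer with EDTA and MgCl2, pH 6. Bound radioactivity measured after filtration; IC50 from nonlinear fit of specific binding inhibition.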

[2] = target: T1, EP1 receptors; assay: human EP1 calcium mobilisation assay (CHO-K1 cells, FLIPR, PGE2); assay type: cell-based; design: expressed in transfected cells; host or cells: CHO-K1 cells, pCIN vector; conditions: free bases or sodium salts; averages of a number of experiments; read-out: functional pKi value, human EP1 calcium mobilisation assay (converted)
Description: Briefly, the antagonist properties of compounds are assessed by their ability to inhibit the mobilisation of intracellular calcium ([Ca^2+]i) in response to activation of EP1 or EP3 receptors by the natural agonist hormone prostaglandin E2 (PGE2). Increasing concentrations of antagonist reduce the amount of calcium that a given concentration of PGE2 can mobilise. The net effect is to displace the PGE2 concentration-effect curve to higher concentrations of PGE2. The amount of calcium produced is assessed using a calcium-sensitive fluorescent dye such as Fluo-4, AM and a suitable instrument such as a Fluorimetric Imaging Plate Reader (FLIPR). Increasing amounts of [Ca^2+]i produced by receptor activation increase the amount of fluorescence produced by the dye and give rise to an increasing signal. The signal may be detected using the FLIPR instrument and the data generated may be analysed with suitable curve-fitting software.
The human EP1 or EP3 calcium mobilisation assay (hereafter referred to as ‘the calcium assay’) utilises Chinese hamster ovary-K1 (CHO-K1) cells into which a stable (pCIN; BioTechniques 20 (1996): 102-110) vector containing either EP1 or EP3 cDNA has previously been transfected. Cells are cultured in suitable flasks containing culture medium such as DMEM:F-12 supplemented with 10% v/v foetal calf serum, 2 mM L-glutamine, 0.25 mg/ml geneticin, 100 μM flurbiprofen and 10 µg/ml puromycin. For assay, cells are harvested using a proprietary reagent that dislodges cells such as Versene. Cells are re-suspended in a suitable quantity of fresh culture media for introduction into a 384-well plate. Following incubation for 24 hours at 37° C. the culture media is replaced with a medium containing Fluo-4 and the detergent pluronic acid, and a further incubation takes place. Concentrations of compounds are then added to the plate in order to construct concentration-effect curves. This may be performed on the FLIPR in order to assess the agonist properties of the compounds. Concentrations of PGE2 are then added to the plate in order to assess the antagonist properties of the compounds. The data so generated may be analysed by means of a computerised curve-fitting routine. The concentration of compound that elicits a half-maximal inhibition of the calcium mobilisation induced by PGE2 (pIC50) may then be estimated.

| IC50 [1] | Ki [2] | SMILES |
| --- | --- | --- |
| ≤ 1000 nM | < 1000 nM | CC(C(=O)O)c1csc(-c2cc(Cl)ccc2OCc2ccccc2)n1 (stereo not drawn) [Example 46, Sodium 2-(2-{5-chloro-2-[(phenylmethyl)oxy]phenyl}-1,3-thiazol-4-yl)propanoate] |
| ≤ 1000 nM | < 1000 nM | CC(C(=O)O)c1csc(-c2cc(Br)ccc2OCc2ccccc2)n1 (stereo not drawn) [Example 47, Sodium 2-(2-{5-bromo-2-[(phenylmethyl)oxy]phenyl}-1,3-thiazol-4-yl)propanoate] |
| ≤ 1000 nM | < 1000 nM | CC(C)(C(=O)O)c1csc(-c2cc(Cl)ccc2OCc2ccccc2)n1 [Example 48, Sodium 2-(2-{5-chloro-2-[(phenylmethyl)oxy]phenyl}-1,3-thiazol-4-yl)-2-methylpropanoate] |
| ≤ 1000 nM | < 1000 nM | CC(C)(C(=O)O)c1csc(-c2cc(Br)ccc2OCc2ccccc2)n1 [Example 49, Sodium 2-(2-{5-bromo-2-[(phenylmethyl)oxy]phenyl}-1,3-thiazol-4-yl)-2-methylpropanoate] |
| ≤ 1000 nM | < 1000 nM | CC(c1nc(C(=O)O)cs1)c1cc(Cl)ccc1OCc1ccccc1 (stereo not drawn) [Example 50] |
| ≤ 1000 nM | > 1000 nM | O=C(O)Cc1coc(-c2cc(Cl)ccc2OCc2ccc(F)cc2F)n1 [Example 79, [2-(5-chloro-2-{[(2,4-difluorophenyl)-methyl]oxy}phenyl)-1,3-oxazol-4-yl]acetic acid] |
| ≤ 1000 nM | > 1000 nM | O=C(O)Cc1coc(-c2cc(Cl)ccc2OCc2c(F)cc(F)cc2F)n1 [Example 80, [2-(5-chloro-2-{[(2,4,6-trifluorophenyl)methyl]oxy}phenyl)-1,3-oxazol-4-yl]acetic acid] |
| ≤ 1000 nM | > 1000 nM | O=C(O)Cc1coc(-c2cc(Cl)ccc2OCc2ccc(F)cc2Cl)n1 [Example 81, [2-(5-chloro-2-{[(2-chloro-4-fluorophenyl)methyl]oxy}phenyl)-1,3-oxazol-4-yl]acetic acid] |
| ≤ 1000 nM | > 1000 nM | O=C(Nc1ccccc1)c1csc(Cc2cc(Cl)ccc2OCc2ccccc2)n1 [Example 91, 2-({5-Chloro-2-[(phenylmethyl)oxy]phenyl}methyl)-N-phenyl-1,3-thiazole-4-carboxamide] |
| ≤ 1000 nM | > 1000 nM | O=C(NCc1ccccc1)c1csc(Cc2cc(Cl)ccc2OCc2ccccc2)n1 [Example 92, 2-({5-Chloro-2-[(phenylmethyl)oxy]phenyl}methyl)-N-(phenylmethyl)-1,3-thiazole-4-carboxamide] |
| ≤ 1000 nM | > 1000 nM | CC(C)CNC(=O)c1csc(Cc2cc(Cl)ccc2OCc2ccccc2)n1 [Example 93, 2-({5-Chloro-2-[(phenylmethyl)oxy]phenyl}methyl)-N-(2-methylpropyl)-1,3-thiazole-4-carboxamide] |
| ≤ 1000 nM | < 1000 nM | O=C(NCc1ccccn1)c1csc(Cc2cc(Cl)ccc2OCc2ccccc2)n1 [Example 94, 2-({5-Chloro-2-[(phenylmethyl)oxy]phenyl}methyl)-N-(2-pyridinylmethyl)-1,3-thiazole-4-carboxamide] |
| ≤ 1000 nM | < 1000 nM | O=C(NCc1cccnc1)c1csc(Cc2cc(Cl)ccc2OCc2ccccc2)n1 [Example 95, 2-({5-Chloro-2-[(phenylmethyl)oxy]phenyl}methyl)-N-(3-pyridinylmethyl)-1,3-thiazole-4-carboxamide] |
| ≤ 1000 nM | < 1000 nM | O=C(NCc1ccncc1)c1csc(Cc2cc(Cl)ccc2OCc2ccccc2)n1 [Example 96, 2-({5-Chloro-2-[(phenylmethyl)oxy]phenyl}methyl)-N-(4-pyridinylmethyl)-1,3-thiazole-4-carboxamide] |
| ≤ 1000 nM | > 1000 nM | CNC(=O)c1csc(Cc2cc(Cl)ccc2OCc2ccccc2)n1 [Example 97, 2-({5-Chloro-2-[(phenylmethyl)oxy]phenyl}methyl)-N-methyl-1,3-thiazole-4-carboxamide] |
| ≤ 1000 nM | ≤ 31.6 nM | O=C(Nc1nnn[nH]1)c1csc(Cc2cc(Cl)ccc2OCc2ccccc2)n1 [Example 98, 2-({5-Chloro-2-[(phenylmethyl)oxy]phenyl}methyl)-N-1H-tetrazol-5-yl-1,3-thiazole-4-carboxamide] |
| ≤ 1000 nM | > 1000 nM | O=C(Nc1ccccn1)c1csc(Cc2cc(Cl)ccc2OCc2ccccc2)n1 [Example 99, 2-({5-Chloro-2-[(phenylmethyl)oxy]phenyl}methyl)-N-2-pyridinyl-1,3-thiazole-4-carboxamide] |
| ≤ 31.6 nM | < 1000 nM | O=C(NS(=O)(=O)c1ccccc1)c1csc(Cc2cc(Cl)ccc2OCc2ccc(F)cc2)n1 [Example 101, 2-[(5-Chloro-2-{[(4-fluorophenyl)methyl]-oxy}phenyl)methyl]-N-(phenylsulfonyl)-1,3-thiazole-4-carboxamide] |
| ≤ 31.6 nM | < 1000 nM | O=C(NS(=O)(=O)c1ccccc1)c1csc(Cc2cc(Cl)ccc2OCc2ccc(F)cc2F)n1 [Example 102, 2-[(5-Chloro-2-{[(2,4-difluorophenyl)methyl]oxy}phenyl)methyl]-N-(phenylsulfonyl)-1,3-thiazole-4-carboxamide] |
| ≤ 31.6 nM | < 1000 nM | O=C(NS(=O)(=O)c1ccccc1)c1csc(Cc2cc(Cl)ccc2OCc2ccccc2F)n1 [Example 103, 2-[(5-Chloro-2-{[(2-fluorophenyl)methyl]-oxy}phenyl)methyl]-N-(phenylsulfonyl)-1,3-thiazole-4-carboxamide] |
| ≤ 31.6 nM | < 1000 nM | O=C(NS(=O)(=O)c1ccccc1)c1csc(Cc2cc(Cl)ccc2OCc2ccccc2Cl)n1 [Example 104, 2-[(5-Chloro-2-{[(2-chlorophenyl)methyl]-oxy}phenyl)methyl]-N-(phenylsulfonyl)-1,3-thiazole-4-carboxamide] |
| ≤ 31.6 nM | < 1000 nM | O=C(NS(=O)(=O)c1ccccc1)c1csc(Cc2cc(Cl)ccc2OCc2ccc(Cl)cc2F)n1 [Example 105, 2-[(5-Chloro-2-{[(4-chloro-2-fluorophenyl)methyl]-oxy}phenyl)methyl]-N-(phenylsulfonyl)-1,3-thiazole-4-carboxamide] |
| ≤ 31.6 nM | ≤ 31.6 nM | O=C(NS(=O)(=O)c1ccccc1)c1csc(Cc2cc(Cl)ccc2OCc2cc(F)c(F)cc2F)n1 [Example 106, 2-[(5-Chloro-2-{[(2,4,5-trifluorophenyl)methyl]oxy}phenyl)methyl]-N-(phenylsulfonyl)-1,3-thiazole-4-carboxamide] |
| ≤ 31.6 nM | < 1000 nM | CS(=O)(=O)NC(=O)c1csc(Cc2cc(Cl)ccc2OCc2ccc(F)cc2)n1 [Example 107, 2-[(5-Chloro-2-{[(4-fluorophenyl)methyl]-oxy)phenyl)methyl]-N-(methylsulfonyl)-1,3-thiazole-4-carboxamide] |
| ≤ 31.6 nM | ≤ 31.6 nM | Cc1noc(C)c1S(=O)(=O)NC(=O)c1csc(Cc2cc(Cl)ccc2OCc2ccccc2)n1 [Example 108, 2-({5-Chloro-2-[(phenylmethyl)oxy]-phenyl}methyl)-N-[(3,5-dimethyl-4-isoxazolyl)sulfonyl]-1,3-thiazole-4-carboxamide] |
| ≤ 31.6 nM | – | CC(C)COc1ccc(Cl)cc1Cc1nc(-c2nc3cc(N4CCN(C)CC4)ccc3[nH]2)co1 [Example 163, 2-[2-({5-Chloro-2-[(2-methylpropyl)oxy]phenyl}methyl)-1,3-oxazol-4-yl]-5-(4-methyl-1-piperazinyl)-1H-benzimidazoletrihydrochloride] |
